Data reported in patent US9938510B2, “Photobacterium sp. alpha-2-6-sialyltransferase variants” (The Regents of the University of California, priority 2014, dated 2018).
Like-named read-outs stand apart in the source and are kept apart here.

Legend:
[1] = system: Photobacterium sp. JH-ISH-224 α2-6-sialyltransferase Psp26ST(15-501)-His6, wild type, SEQ ID NO: 23; conditions: apparent, cited from earlier work
[2] = system: Photobacterium sp. JH-ISH-224 α2-6-sialyltransferase Psp26ST(15-501)-His6 A366G mutant, SEQ ID NO: 2; assay: Sialyltransferase kinetics, Psp26ST(15-501)-His6 A366G mutant; type: biochemical; conditions: apparent
Experimental: Reactions were carried out in duplicate at 20° C. for 20 minutes in a total volume of 10 μL in a proper buffer at the optimal pH according to the pH profile of the wild-type enzyme (see, Ding, 2011, supra). When LacβMU was used as an acceptor, the conditions were: Tris-HCl buffer (200 mM, pH 8.0), enzyme (0.3 μM), varied concentrations of LacβMU (0.1, 0.25, 0.4, 1.0, 2.0, 4.0, and 6.0 mM) with a fixed concentration of CMP-Neu5Ac (1.0 mM) or varied concentrations of CMP-Neu5Ac (0.1, 0.25, 0.4, 1.0, 2.0, 4.0, and 6.0 mM) with a fixed concentration of LacβMU (1.0 mM). When GalNAcα2AA was used as an acceptor, the conditions were: NaOAc-HOAc buffer (200 mM, pH 5.0), enzyme (6 μM), varied concentrations of GalNAcα2AA (0.5, 0.8, 1.0, 2.0, 4.0, 8.0, and 10.0 mM) and a fixed concentration of CMP-Neu5Ac (4.0 mM) or varied concentrations of CMP-Neu5Ac (0.5, 1.0, 2.0, 4.0, 5.0, 8.0, and 10.0 mM) with a fixed concentration of GalNAcα2AA (1.0 mM). When GalNAcαSer was used as an acceptor, the conditions were: Tris-HCl buffer (200 mM, pH 8.0), enzyme (0.6 μM), varied concentrations of GalNAcαSer (0.1, 0.25, 0.5, 1.0, 2.0, 4.0, 8.0, and 10.0 mM) and a fixed concentration of CMP-Neu5Ac (2.0 mM). When GalNAcαThr was used as an acceptor, the conditions were: Tris-HCl buffer (200 mM, pH 8.0), enzyme (3.0 μM), varied concentrations of GalNAcαThr (0.5, 1.0, 2.0, 4.0, 10.0, 20.0, 40.0, 60.0 mM) and a fixed concentration of CMP-Neu5Ac (4.0 mM). Results analysis was performed using the HPLC system as described above for sialyltransferase activity assays. Apparent kinetic parameters were obtained by fitting the experimental data (the average values of duplicate assay results) into the Michaelis-Menten equation using Grafit 5.0.

[3] = Sialyltransferase activity assays, statements not tied to one acceptor (LacβMU, GalNAcα2AA, GalNAcαSer, GalNAcαThr); type: biochemical
Experimental: When LacβMU was used as an acceptor, the assay was performed in duplicate in 10 μL of Tris-HCl buffer (100 mM, pH 8.0) containing CMP-Neu5Ac (1 mM), LacβMU (1 mM), MgCl2 (20 mM), wild-type Psp2,6ST(15-501)-His6 or its mutant (0.3 μM). When an α-GalNAc-terminated acceptor was used, the assay was performed in duplicate in 10 μL of Tris-HCl buffer (100 mM, pH 8.0 for GalNAcαSer/Thr) or NaOAc-HOAc (100 mM, pH 5.0 for GalNAcα2AA) containing CMP-Neu5Ac (1.5 mM), the acceptor (1 mM), MgCl2 (20 mM), wild-type Psp2,6ST(15-501)-His6 or its mutant (3.0 μM). Reactions were allowed to proceed at 20° C. for 20 min and stopped by adding 10 μL of cold ethanol. The analysis of sialylated product conversion was performed using the HPLC system as described above for sialyltransferase activity assay. The 4-methylumbelliferone (MU)-labeled fluorescent acceptor and the product formed were detected with excitation at 325 nm and emission at 372 nm. The 2-aminobenzoic acid (2AA)-labeled fluorescent acceptors and the products formed were detected with excitation at 315 nm and emission at 400 nm. The 9-fluorenylmethylcarbamate (Fmoc)-labeled fluorescent acceptors and the products formed were detected with excitation at 262 nm and emission at 313 nm.

[4] = One-pot two-enzyme (OP2E) sialylation with NmCSS, GalNAcαThr as acceptor; type: biochemical; conditions: 2.5 equivalents of Neu5Ac and 5.0 equivalents of CTP
Excerpt: White bars: GalNAcαSer was used as an acceptor with 1 equivalent of Neu5Ac and 1.5 equivalents of CTP. Grey bars: GalNAcαSer was used as an acceptor with 2.5 equivalents of Neu5Ac and 5.0 equivalents of CTP. Black bars: GalNAcαThr was used as an acceptor with 2.5 equivalents of Neu5Ac and 5.0 equivalents of CTP.
In this system, CTP and Neu5Ac were used by NmCSS for the formation of CMP-Neu5Ac in situ (see also, Yu and Chen, et al. Bioorg. Med. Chem. 2004, 12, 6427-6435). CMP-Neu5Ac was used as the donor substrate for Psp26ST(15-501)-His6 or its mutants. […] For example, using 1 equivalent of Neu5Ac and 1.5 equivalents of CTP in the one-pot two-enzyme (OP2E) reaction (white bars in FIG. 6) improved the GalNAcαSer α2-6-sialylation reaction yields from less than 6% (1 equivalent CMP-Neu5Ac was used) (FIG. 5B) to 32-51% for W365A, W365G, W365S mutants. Similarly, the OP2E reaction improved the GalNAcαSer α2-6-sialylation reaction yields from 40% and 37% to 75% and 67% for A366G mutant and the wild-type enzyme, respectively. Increasing the concentrations of Neu5Ac and CTP to 2.5 and 5.0 equivalents further improved the reaction yields to more than 67% for Psp26ST(15-501)-His6 and its mutants ([…]). […] Therefore, in situ generation of CMP-Neu5Ac, the sugar nucleotide donor for sialyltransferases, was proven an efficient method to enhance the yields for sialylation reactions catalyzed not only by the wild-type enzymes but also sialyltransferase mutants.

[5] = varied LacβMU, CMP-Neu5Ac 1.0 mM, Tris-HCl pH 8.0, 20° C.

For CC(=O)N[C@H]1[C@@H](O[C@H](C)[C@H](N)C(=O)O)O[C@H](CO)[C@H](O)[C@@H]1O [GalNAcαOThr], the Km ([1]; acceptor GalNAcαOThr) is listed as 5.9 ± 1.6 mM and the Km ([2]; varied GalNAcαThr, CMP-Neu5Ac 4.0 mM, Tris-HCl pH 8.0, 20° C.) is listed as 7.2 ± 3 mM.

For Cc1cc(=O)oc2cc(O[C@@H]3O[C@H](CO)[C@@H](O[C@@H]4O[C@H](CO)[C@H](O)[C@H](O)[C@H]4O)[C@H](O)[C@H]3O)ccc12 [LacβMU], the Km ([1]; acceptor LacβMU) is given as 0.36 mM, the kcat ([1]; acceptor LacβMU) is given as “(1.0 ± 0.1) × 10^2 min^−1” and the Km [2, 5] is given as 0.41 mM. The kcat [2, 5] was “(1.0 ± 0.1) × 10^2 min^−1”.

For GalNAcα2AA, the Km ([1]; acceptor GalNAcα2AA) is given as 9.5 ± 2.7 mM and the Km ([2]; varied GalNAcα2AA, CMP-Neu5Ac 4.0 mM, NaOAc-HOAc pH 5.0, 20° C.) is given as 5.5 ± 1 mM.

In the case of CC(=O)N[C@H]1[C@@H](OC[C@H](N)C(=O)O)O[C@H](CO)[C@H](O)[C@@H]1O [GalNAcαOSer], the Km ([1]; acceptor GalNAcαOSer) is given as 1.4 ± 0.1 mM and the Km ([2]; varied GalNAcαSer, CMP-Neu5Ac 2.0 mM, Tris-HCl pH 8.0, 20° C.) is given as 1.7 ± 0.7 mM.

B1: R153G: Psp26ST(15-501)-His6 with R153G point mutation; SEQ ID NO: 10 (protein)
chain: CNNSEENTQSIIKNDINKTIIDEEYVNLEPINQSNISFTKHSWVQTCGTQQLLTEQNKESISLSVVAPRLDDDEKYCFDFNGVSNKGEKYITKVTLNVVAPSLEVYVDHASLPTLQQLMDIIKSEEENPTAQRYIAWGGIVPTDEQMKELNITSFALINNHTPADLVQEIVKQAQTKHRLNVKLSSNTAHSFDNLVPILKELNSFNNVTVTNIDLYDDGSAEYVNLYNWRDTLNKTDNLKIGKDYLEDVINGINEDTSNTGTSSVYNWQKLYPANYHFLRKDYLTLEPSLHELRDYIGDSLKQMQWDGFKKFNSKQQELFLSIVNFDKQKLQNEYNSSNLPNFVFTGTTVWAGNHEREYYAKQQINVINNAINESSPHYLGNSYDLFFKGHPGGGIINTLIMQNYPSMVDIPSKISFEVLMMTDMLPDAVAGIASSLYFTIPAEKIKFIVFTSTETITDRETALRSPLVQVMIKLGIVKEENVLFWA
modifications: C-terminal His6; Synthetic Psp26ST(15-501) R153G
In the case of B1, the “sialylation activity compared to wild-type” value [3] is reported as “knocked out the sialylation activity completely”.

B2: W365G: Psp26ST(15-501)-His6 with W365G point mutation; SEQ ID NO: 4 (protein)
chain: CNNSEENTQSIIKNDINKTIIDEEYVNLEPINQSNISFTKHSWVQTCGTQQLLTEQNKESISLSVVAPRLDDDEKYCFDFNGVSNKGEKYITKVTLNVVAPSLEVYVDHASLPTLQQLMDIIKSEEENPTAQRYIAWGRIVPTDEQMKELNITSFALINNHTPADLVQEIVKQAQTKHRLNVKLSSNTAHSFDNLVPILKELNSFNNVTVTNIDLYDDGSAEYVNLYNWRDTLNKTDNLKIGKDYLEDVINGINEDTSNTGTSSVYNWQKLYPANYHFLRKDYLTLEPSLHELRDYIGDSLKQMQWDGFKKFNSKQQELFLSIVNFDKQKLQNEYNSSNLPNFVFTGTTVGAGNHEREYYAKQQINVINNAINESSPHYLGNSYDLFFKGHPGGGIINTLIMQNYPSMVDIPSKISFEVLMMTDMLPDAVAGIASSLYFTIPAEKIKFIVFTSTETITDRETALRSPLVQVMIKLGIVKEENVLFWA
modifications: C-terminal His6; Synthetic Psp26ST(15-501) W365G
With B2 the “yield of Neu5Acα2-6GalNAcαThr from GalNAcαThr, OP2E” value [4] was 91%.

B3: A124D: Psp26ST(15-501)-His6 with A124D point mutation; SEQ ID NO: 12 (protein)
chain: CNNSEENTQSIIKNDINKTIIDEEYVNLEPINQSNISFTKHSWVQTCGTQQLLTEQNKESISLSVVAPRLDDDEKYCFDFNGVSNKGEKYITKVTLNVVAPSLEVYVDHDSLPTLQQLMDIIKSEEENPTAQRYIAWGRIVPTDEQMKELNITSFALINNHTPADLVQEIVKQAQTKHRLNVKLSSNTAHSFDNLVPILKELNSFNNVTVTNIDLYDDGSAEYVNLYNWRDTLNKTDNLKIGKDYLEDVINGINEDTSNTGTSSVYNWQKLYPANYHFLRKDYLTLEPSLHELRDYIGDSLKQMQWDGFKKFNSKQQELFLSIVNFDKQKLQNEYNSSNLPNFVFTGTTVWAGNHEREYYAKQQINVINNAINESSPHYLGNSYDLFFKGHPGGGIINTLIMQNYPSMVDIPSKISFEVLMMTDMLPDAVAGIASSLYFTIPAEKIKFIVFTSTETITDRETALRSPLVQVMIKLGIVKEENVLFWA
modifications: C-terminal His6; Synthetic Psp26ST(15-501) A124D
For B3, the “sialylation activity compared to wild-type” value [3] was “lost sialylation activity”.

B4: W365A: Psp26ST(15-501)-His6 with W365A point mutation; SEQ ID NO: 6 (protein)
chain: CNNSEENTQSIIKNDINKTIIDEEYVNLEPINQSNISFTKHSWVQTCGTQQLLTEQNKESISLSVVAPRLDDDEKYCFDFNGVSNKGEKYITKVTLNVVAPSLEVYVDHASLPTLQQLMDIIKSEEENPTAQRYIAWGRIVPTDEQMKELNITSFALINNHTPADLVQEIVKQAQTKHRLNVKLSSNTAHSFDNLVPILKELNSFNNVTVTNIDLYDDGSAEYVNLYNWRDTLNKTDNLKIGKDYLEDVINGINEDTSNTGTSSVYNWQKLYPANYHFLRKDYLTLEPSLHELRDYIGDSLKQMQWDGFKKFNSKQQELFLSIVNFDKQKLQNEYNSSNLPNFVFTGTTVAAGNHEREYYAKQQINVINNAINESSPHYLGNSYDLFFKGHPGGGIINTLIMQNYPSMVDIPSKISFEVLMMTDMLPDAVAGIASSLYFTIPAEKIKFIVFTSTETITDRETALRSPLVQVMIKLGIVKEENVLFWA
modifications: C-terminal His6; Synthetic Psp26ST(15-501) W365A
In the case of B4, the “yield of Neu5Acα2-6GalNAcαThr from GalNAcαThr, OP2E” value [4] is reported as 85%.
